Test results as given in US20200045965A1, “METHOD FOR THE CONTROL OF PLANT BACTERIAL DISEASES USING CARBOXAMIDE DERIVATIVES” (BAYER CROPSCIENCE AKTIENGESELLSCHAFT, priority 2016, published 2020).

What was measured:
[1] = system: Xanthomonas spp.; experiment: Field trial in vivo against bacterial leaf streak on spring wheat, foliar spray; parameters: species or system Xanthomonas translucens
Method: EXAMPLE 2: TEST IN VIVO AGAINST XANTHOMONAS TRANSLUCENS (WHEAT)
Field trials were conducted to test the efficacy of N-(5-chloro-2-isopropylbenzyl)-N-cyclopropyl-3-(difluoromethyl)-5-fluoro-1-methyl-1H-pyrazole-4-carboxamide (compound A5) in combination with the commercial standard Prosaro (a 1:1 combination of Prothioconazole and Tebuconazole) against bacterial leaf streak caused by Xanthomonas spp. when sprayed on leaves. A control without compound A5 was tested in same conditions.
The field trials were randomized, had 4 replicates and plot size was 15.24 m^2. Fertilization, herbicide- and insecticide applications were carried out according to the local agricultural practice.
N-(5-chloro-2-isopropylbenzyl)-N-cyclopropyl-3-(difluoromethyl)-5-fluoro-1-methyl-1H-pyrazole-4-carboxamide was applied as SC 280 formulation in 3 rates in combination with the commercial standard Prosaro. Test was conducted in a Spring wheat which was treated in growth stage EC 61 with one foliar application.
22 days after application the efficacy of the tested products against the bacterial leaf streak caused by Xanthomonas spp. was visually assessed. The effect was evaluated as preservation of remaining green leaves (GRNLVS) in a scale from 1-6 (meaning 1 best and 6 worst green leaf preservation)

[2] = system: Pseudomonas syringae; experiment: Field trials in vivo against Pseudomonas syringae on coffee tree, foliar spray
Method: EXAMPLE 1: TEST IN VIVO AGAINST PSEUDOMONAS SYRINGAE (COFFEE)
Two field trials were conducted to find out the efficacy of N-(5-chloro-2-isopropylbenzyl)-N-cyclopropyl-3-(difluoromethyl)-5-fluoro-1-methyl-1H-pyrazole-4-carboxamide (compound A5) against bacteria (Pseudomonas syringae) when sprayed on leaves of coffee tree.
The field trials were randomized, had 3 replicates and plot size was 20 m. The product was applied as an EC 100—formulation in a spray sequence consisting of three foliar applications, beginning in the growth stage EC59. The sprays were done with an interval of approximately 4 weeks (between treatments). About 3 and 11 weeks after the third application the efficacy of the compound against the bacterial pathogen Pseudomonas syringae was visually assessed as incidence of infested leaf rosettes or branches per plot (in %). Then the incidence values were converted into control (% Abbott).

[3] = log P by HPLC on reversed-phase column (EEC Directive 79/831 Annex V.A8); assay type: physicochemical; conditions: HPLC C18, 40° C., 0.1% aqueous formic acid and acetonitrile
Method: Table 1 provides the log P and NMR data (^1H) of compounds A1 to A20.
In table 1, the log P values were determined in accordance with EEC Directive 79/831 Annex V.A8 by HPLC (High Performance Liquid Chromatography) on a reversed-phase column (C 18), using the method described below:
Temperature: 40° C.; Mobile phases: 0.1% aqueous formic acid and acetonitrile; linear gradient from 10% acetonitrile to 90% acetonitrile.
Calibration was carried out using unbranched alkan-2-ones (comprising 3 to 16 carbon atoms) with known log P values (determination of the log P values by the retention times using linear interpolation between two successive alkanones). lambda-max-values were determined using UV-spectra from 200 nm to 400 nm and the peak values of the chromatographic signals.

| Compound | suppressing bacterial leaf streak caused by Xanthomonas spp. (conclusion in words) [1] | effect on bacterial disease caused by Pseudomonas syringae in coffee (conclusion in words) ([2]; based on the two field trials) | ABBOTT (%) leaf rosette 21 DA3 ([2]; coffee, first trial (Table 1), 75 g a.i./ha, 21 days after third application) | ABBOTT (%) branch 74 DA3 ([2]; coffee, first trial (Table 1), 75 g a.i./ha, 74 days after third application) | LEAF ROSETTE INCIDENCE (%) 21 DA3 ([2]; coffee, first trial (Table 1), 75 g a.i./ha, EC 100, three foliar applications, 21 days after third application, untreated 12.2) | ABBOTT (%) leaf rosette 20 DA3 ([2]; coffee, second trial (Table 2), 75 g a.i./ha, 20 days after third application) | LEAF ROSETTE INCIDENCE (%) 20 DA3 ([2]; coffee, second trial (Table 2), 75 g a.i./ha, 20 days after third application, untreated 3.5) | logP [3] |
| --- | --- | --- | --- | --- | --- | --- | --- | --- |
| CC(C)c1ccc(Cl)cc1CN(C(=O)c1c(C(F)F)nn(C)c1F)C1CC1 [Compound A5, N-(5-chloro-2-isopropylbenzyl)-N-cyclopropyl-3-(difluoromethyl)-5-fluoro-1-methyl-1H-pyrazole-4-carboxamide] | proves the efficiency | suppresses the bacterial disease | 39.2% | 45% | 7.4% | 65.2% | 1.2% | – |
| N-cyclopropyl-3-(difluoromethyl)-5-fluoro-N-(2-isopropylbenzyl)-1-methyl-1H-pyrazole-4-carbothio-amide [Compound A20] | – | – | – | – | – | – | – | 4.36 |
